# Source: patent publication US5135912A, “Natriuretic peptides from the pituitary prohormone proopiomelanocortin” (Tosoh Corporation, priority 1988, dated 1992)
# Where no end group is shown, it is not given here.
# System: rats
# Test: Natriuretic and diuretic effect of intravenous bolus injection in anesthetized rats
# Assay type: in vivo, rat
# Details: 30 to 60 min after minus 30 to 0 min before injection, mean ± SEM
# Protocol: Diuretic and natriuretic activity of the peptides of this invention is assayed in male rats of the Sprague-Dawley or Long-Evans strains. Peptide or vehicle (for control purposes) is administered by intravenous bolus injection or by continuous infusion into one renal artery of animals anesthetized for the duration of the experiment, or by intramuscular or subcutaneous injection into animals only briefly anesthetized with ether and subsequently conscious and freely moving until completion of the experiment. Timed urine samples are collected for determination of volume and measurement of sodium and potassium concentration by flame photometry. Details of each method are given in Examples II to IV below.
# The natriuretic and diuretic effect of intravenous bolus injection of peptides F15R, G13R and E19R was tested in male Sprague-Dawley or Long-Evans rats weighing 300-400 g. The animals were given Inactin®, 120 mg per kg body weight i.p. under light ether anesthesia. Following placement of a tracheal cannula, the right femoral vein was catheterized for infusion of 5% bovine serum albumin at a dose of 0.4% of body weight and at a rate of 6.0 ml/hour. Subsequently, normal saline was infused for the duration of the experiment at a rate of 2.0 ml/hour. The bladder was exposed through an abdominal incision and catheterized for urine collection. Serial 15-minute urine collections in preweighed vials were begun after a recovery period of 45 minutes. After collection of four control samples, the peptide in 0.1 ml of vehicle was injected into the femoral vein over a period of 1 minute and 6 to 10 further urine samples were collected. Urine volume was determined by weighing and urine sodium and potassium were assayed by flame photometry. All peptides produced natriuresis and diuresis reaching peak levels usually between 30 and 60 minutes after injection. The difference between urine volume and sodium excretion observed from 30 to 60 minutes after and 30 to 0 minutes before peptide administration was calculated for each rat as a measure of activity.
sequence,measurement,setting,value
GNGDEQPLTPNPR [G13R],Change in Sodium Excretion,i.v. bolus 0.100 nmol,8.39 ± 4.41 μeq/30 minutes
same,Change in Urine Volume,i.v. bolus 0.100 nmol,80.0 ± 29.2 μl/30 minutes
same,Change in Sodium Excretion,i.v. bolus 1.00 nmol,12.48 ± 6.22 μeq/30 minutes
same,Change in Urine Volume,i.v. bolus 1.00 nmol,62.0 ± 17.2 μl/30 minutes
